Consider two compounds from PMC4710522, “A Novel Triazolopyridine-Based Spleen Tyrosine Kinase Inhibitor That Arrests Joint Inflammation” (PLoS ONE, 2016).

The nature of data set [1]: rat pharmacokinetics. The format is in vivo. Particulars: Sprague-Dawley, plasma. Here is the method:
Male and Female Sprague-dawley rats with jugular vein cannulation were obtained from Charles River Laboratories. All rats were maintained under standard conditions with access to food and water ad libitum. For intravenous (i.v.) dosing, CC-509 was dissolved in DMA/PEG400 (15/85, V/V). A dose of 2 mg/kg was administered to three male rats via jugular vein cannula with a dosing volume of 2 mL/kg followed by flushing 0.5 mL saline through the cannula. Blood were collected at 0.083, 0.25, 0.5, 1, 2, 4, 6, 8 and 24hr post dose. Plasma samples were separated by centrifugation of blood and stored at -20°C until analysis. For oral administration, four female rats (220–250g) were fasted for 12hr but allowed to access water prior to the dosing. CC-509 was formulated in 20% Captisol as a solution and was administered to the rats at 10 mg/kg by oral gavage with a dosing volume of 5mL/kg. Food was returned to the rats 2hr post dosing. Blood samples were collected at 0.5, 1, 2, 4, 6, 8 and 24hr post dose. Plasma samples were separated by centrifugation of blood and stored at -20°C until analysis. Plasma concentrations of CC-509 were quantified by a LC/MS/MS method. A total of 50 microliters (μL) of each plasma sample was extracted with three volumes of mixed solvent (methanol:acetonitrile (1:1). The extracted samples were filtered through a filtration plate (0.45μm, Varian, Inc.) and the filtrates were injected onto a LC-MS system. The LC-MS system consisted of a ThermoScientific (Waltham, MA) TSQ Quantum Ultra™ Mass Spectrometer coupled with a Thermo Accela™ ultra-high pressure liquid chromatogram (UPLC) system. Separation was achieved on a Thermo Hypersil Gold™ column (50 x 2.1 mm, 1.9 μm) by running a linear gradient of mobile phase at a flow rate of 0.5 mL/min. Mobile phase A and B consisted of 0.1% formic acid in water and 0.1% formic acid in methanol, respectively. Quantitation was performed using selected reaction monitoring (SRM) at the transition m/z 448 to m/z 364 for CC-509. PK parameters in plasma were estimated by WinNonLin software (Pharsight, Princeton, NJ) using non-compartmental analysis. For i.v. dosing, plasma clearance (CLp), volume distribution at steady-state (Vss) and mean residence time (MRT) were estimated. For oral administration, the maximum plasma concentration (Cmax), the time when the maximum plasma concentration is reached (Tmax) and area under the curve from 0 to infinity (AUC0-inf) were calculated.

Data set [2] addresses T1, human ether-à-go-go-related Gene (hERG) channel (Homo sapiens, UniProt Q12809).
T1 construct: ChanTest (contract assay)
Put plainly: non-GLP manual patch clamp hERG assay (ChanTest). The format is cell-based. Particulars: data not shown. Here is the method: Syk kinase mode of inhibition studies, including parameters described in Fig 1, were conducted on the LC3000 platform by Caliper Life Sciences (Hopkinton, MA) according to standard protocols developed by the supplier. […] Non-kinase enzyme assays and GPCR, ion channel, and transporter binding assays were run by CEREP (France). Non-GLP manual patch clamp hERG assays were run by ChanTest (Cleveland, Ohio). Vivid® Assay kits (Life Technologies) were used to measure the cytochrome P450 inhibition of the compound against CYP3A, CYP2C9, CYP2C19, CYP2D6, and CYP1A2, as described.
A general note: The patch-clamp technique gives a direct electrical read-out from membranes.

Data set [3] concerns rat passive cutaneous anaphylaxis model. Put plainly: rat passive cutaneous anaphylaxis (PCA) model. The format is in vivo. Here is the method:
On day 0, male CD-IGS rats (170 – 190g; Charles River Laboratories) were anesthetized with isofluorane, their dorsal region shaved and 50 μl Anti-DNP-IgE (Clone SPE-7, Sigma, St. Louis, MO) that had been diluted 1:1000 in saline was injected via the intradermal route at 3 individual spots along the right side of the back. Saline was injected via the intradermal route at 3 individual spots along the left side of the back as a sham control. Twenty-four hours later, 200 μl of BSA-DNP (Calbiochem, San Diego, CA), prepared (1 mg prepared in a 2% solution of Evans blue dye: Sigma Chemicals, St. Louis, MO) was injected via the IV route via the tail vein. Thirty minutes after the BSA-DNP challenge the experiment was terminated and skin samples from the middle of each injection site taken for Evans blue dye measurement at an OD measurement at 620nm on a plate reader following incubation (2h at 90°C) and homogenization in formamide (Sigma Chemicals, St. Louis, MO). Vehicle (20% Captisol® (Captisol), PO), the positive control (Cromolyn: Sigma Chemicals, St. Louis, MO 100mg/kg, 2mL/kg, IV) or CC0484509 (3 and 10mg/kg, PO) were dosed 1h prior to the IV challenge with BSA-DNP.
For the TEL-Syk assay, the intensity values for the 700 and 800 channel were exported as text files in ActivityBase (IDBS, Guildford, UK) to derive the ratios that reflect kinase activity. For LAD2 experiments, enzyme activity values were exported as text files into ActivityBase to calculate “percent release” according to the formula: 100* supernatant OD405/ (supernatant OD405 + (pellet OD405*pellet dilution factor)). For the basophil and B-cells assays, flow cytometry data was exported from the FACS Array and processed using FloJo software package (TreeStar, Inc., Ashland, Oregon). For the JAK2 HEL and Ramos NFAT β-lactamase assays, the fluorescence values obtained at 460 nm and 530 nm were exported into ActivityBase to calculate response ratios. For the neutrophil, macrophage, KDR, and JAK1/3 assays, raw values were exported into ActivityBase to calculate percent inhibition. All IC50 calculations were generated using XLfit (IDBS, Guildford, UK) algorithm 205 within Excel. For PCA, the OD from the saline injected site was subtracted from the OD from the anti-DNP IgE injected site. Evans blue dye extravasation was expressed as mean ± SEM and % inhibition for the test article groups was normalized to the cromolyn positive control. For the CIA model paw measurements (left and right ankle diameter) were taken for each individual animal and averaged. The mean data from each group was plotted and either the AUC(day 11–18) or % inhibition on day 18 was calculated. Data is expressed as mean ± SEM of each group with n = 6–12. […]

Data set [4] addresses T2, cSRC_h (Homo sapiens, UniProt P12931).
T2 construct: purchased Life Technologies (Invitrogen) SelectScreen, Z'-LYTE / Adapta
Put plainly: SelectScreen kinase assay. The format is biochemical. Particulars: KM ATP, read-out: % control.

Data set [5] relates to proinflammatory analytes in paw tissue. Particulars: cited from earlier work.

T2 sequence (P12931 whole entry): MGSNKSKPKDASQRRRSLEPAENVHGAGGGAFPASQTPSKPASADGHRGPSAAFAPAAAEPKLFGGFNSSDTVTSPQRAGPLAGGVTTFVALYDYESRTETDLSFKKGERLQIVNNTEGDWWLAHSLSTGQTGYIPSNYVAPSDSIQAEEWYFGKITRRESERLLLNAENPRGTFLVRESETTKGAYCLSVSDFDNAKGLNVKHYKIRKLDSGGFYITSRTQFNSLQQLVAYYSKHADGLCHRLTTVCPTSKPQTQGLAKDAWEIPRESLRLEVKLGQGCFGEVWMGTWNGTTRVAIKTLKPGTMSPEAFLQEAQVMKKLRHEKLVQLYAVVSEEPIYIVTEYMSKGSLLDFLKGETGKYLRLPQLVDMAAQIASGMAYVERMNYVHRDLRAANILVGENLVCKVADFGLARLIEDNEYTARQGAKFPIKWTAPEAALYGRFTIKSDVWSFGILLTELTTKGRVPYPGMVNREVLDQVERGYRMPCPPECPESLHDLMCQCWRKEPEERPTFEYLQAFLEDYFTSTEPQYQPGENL
T1 sequence (Q12809 whole entry): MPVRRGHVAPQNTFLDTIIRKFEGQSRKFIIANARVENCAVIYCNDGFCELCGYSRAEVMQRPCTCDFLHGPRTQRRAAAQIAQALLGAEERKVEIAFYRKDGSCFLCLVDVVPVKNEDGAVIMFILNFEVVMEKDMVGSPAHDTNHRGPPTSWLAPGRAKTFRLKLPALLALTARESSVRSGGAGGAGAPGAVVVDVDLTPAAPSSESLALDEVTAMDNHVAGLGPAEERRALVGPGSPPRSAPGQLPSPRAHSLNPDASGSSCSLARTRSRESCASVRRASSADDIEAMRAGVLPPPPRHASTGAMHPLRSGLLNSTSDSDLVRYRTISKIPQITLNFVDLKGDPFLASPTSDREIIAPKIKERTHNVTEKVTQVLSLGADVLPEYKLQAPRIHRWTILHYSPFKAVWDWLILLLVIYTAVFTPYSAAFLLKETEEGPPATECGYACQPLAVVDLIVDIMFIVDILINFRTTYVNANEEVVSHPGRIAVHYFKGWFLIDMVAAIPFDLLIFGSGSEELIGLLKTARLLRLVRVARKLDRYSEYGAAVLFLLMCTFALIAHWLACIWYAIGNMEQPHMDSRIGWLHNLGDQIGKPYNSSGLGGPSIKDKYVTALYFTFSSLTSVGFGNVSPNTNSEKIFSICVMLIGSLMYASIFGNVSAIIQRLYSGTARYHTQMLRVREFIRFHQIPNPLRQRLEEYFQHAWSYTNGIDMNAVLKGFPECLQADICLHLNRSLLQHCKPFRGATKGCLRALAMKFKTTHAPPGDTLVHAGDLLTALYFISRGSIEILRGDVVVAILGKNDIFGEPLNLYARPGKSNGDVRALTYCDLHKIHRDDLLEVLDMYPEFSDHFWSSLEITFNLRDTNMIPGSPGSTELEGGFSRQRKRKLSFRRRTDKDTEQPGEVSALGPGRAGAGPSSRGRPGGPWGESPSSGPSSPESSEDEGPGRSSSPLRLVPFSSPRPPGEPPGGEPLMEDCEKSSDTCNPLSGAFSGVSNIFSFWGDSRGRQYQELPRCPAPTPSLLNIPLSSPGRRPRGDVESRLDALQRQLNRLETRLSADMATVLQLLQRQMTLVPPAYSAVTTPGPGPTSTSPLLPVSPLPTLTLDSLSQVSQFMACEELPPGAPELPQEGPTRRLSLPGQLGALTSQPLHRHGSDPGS

`c1cc(CC2CCOCC2)n2nc(Nc3ccc4c(NC5CCOCC5)n[nH]c4c3)nc2c1` [CC-509, [3-(2H-3,4,5,6-tetrahydropyran-4-ylamino)(1H-indazol-6-yl)][5-(2H-3,4,5,6-tetrahydropyran-4-ylmethyl)(2H-1,2,4-triazolo[1,5-a]pyridin-2-yl)]amine]: the AUC(0-inf) in data set [1] (iv, i.v. 2 mg/kg, male rats) is 4.02 ± 0.7 µM·h; in data set [1] (oral 10 mg/kg, female rats), 12 ± 1 µM·h. In addition, the clearance in data set [1] (iv, i.v. 2 mg/kg, male rats, read-out: clearance (CL)) was 1.13 ± 0.21 L/h/kg. Besides, in data set [1] (iv, i.v. 2 mg/kg, male rats, read-out: mean residence time (MRT)), the MRT came to 2.3 ± 1.5 h. Also, the Vd in data set [1] (iv, i.v. 2 mg/kg, male rats, read-out: volume of distribution (Vss)) stood at 2.8 ± 2.36 L/kg. Also, in data set [1] (oral 10 mg/kg, female rats), the Cmax was 4.4 ± 0.2 µM. In addition, the Tmax in data set [1] (oral 10 mg/kg, female rats, read-out: time of maximal plasma concentration (converted)) is 0.5 h. Besides, in data set [2], the “inhibition of hERG channel activity” value is given as “did not inhibit”. Also, the “inhibition of skin edema, normalized to cromolyn” value in data set [3] (3 mg/kg PO, not statistically significant) is 26%; in data set [3] (10 mg/kg PO, p<0.01), 81%. Further, in data set [3] (Rattus norvegicus, PCA model, dye extravasation), the ED50 was about 5 mg/kg. For the same compound, in data set [4], the remaining activity at 3 µM came out at 67%.

On to `COc1cc(Nc2ncc(F)c(Nc3ccc4c(n3)NC(=O)C(C)(C)O4)n2)cc(OC)c1OC` [R406, reference compound], for which, in data set [5], the “expression of MCP-1, KC, IL-6 and IL-1β in the CIA model” value was “inhibited”.

As a reminder, the AUC(0-inf) is total exposure, with the tail of the curve extrapolated. Read a high AUC(0-inf) as high exposure. A word on the clearance: it is a measure of how efficiently the substance is removed, as volume per time. In general, MRT refers to the average time that molecules of a dose stay in the body. In general, Cmax refers to the highest concentration seen after dosing. In general, ED50 refers to the dose at which the effect has come halfway, by size or by number of responders. High values mean weaker potency, low ones greater potency.
